Experiments:
Assay in all cases: relative viability (nuclei count vs DMSO), 5 days (fraction); higher = more cells survive
[1] = compound: CC(C)C[C@H](NC(=O)[C@H](Cc1ccccc1)NC(=O)c1cnccn1)B(O)O [Bortezomib] + Cc1cc(Nc2cc(N3CCN(C)CC3)nc(Sc3ccc(NC(=O)C4CC4)cc3)n2)n[nH]1 [Tozasertib] (partner 0.1 µM)
Summary of the method: (§1)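 Lung cancer cell lines were seeded in 1536-well plates and dosed by pin tool the next day, with either a single drug or a fixed anchor-drug dose combined with five library-drug doses (not always all listed) spaced in √10 steps. Five days later, one step fixed the cells and stained their nuclei (final 0.05% Triton X-100, 1% formaldehyde, 1 ug/ml Hoechst), and nuclei were counted on 4× images. Relative viability is the nuclei count in treated wells divided by the count in vehicle wells, and each value is the median of duplicate plates.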

[2] = compound: CC(C)C[C@H](NC(=O)[C@H](Cc1ccccc1)NC(=O)c1cnccn1)B(O)O [Bortezomib] + Nc1nc2[nH]cc(CCc3ccc(C(=O)N[C@@H](CCC(=O)O)C(=O)O)cc3)c2c(=O)[nH]1 [Pemetrexed] (partner 0.2 µM)
Summary of the method: as §1

[3] = compound: CC1=CC(=NN1)NC2=CC(=NC(=N2)/C=C/C3=CC=CC=C3)N4CCN(CC4)C + CC(=O)c1c(C)c2cnc(Nc3ccc(N4CCNCC4)cn3)nc2n(C2CCCC2)c1=O [Palbociclib] (partner 0.5 µM)
Summary of the method: as §1

[4] = compound: COC1=CC(c2cc3ccccc3[nH]2)=N/C1=C\c1[nH]c(C)cc1C [Obatoclax] + CCNC(=O)c1noc(-c2cc(C(C)C)c(O)cc2O)c1-c1ccc(CN2CCOCC2)cc1 [Luminespib] (partner 0.01 µM)
Summary of the method: as §1

Row | Cell Line | relative viability ([1]; first compound 0.0002 µM) | relative viability ([1]; first compound 0.000632 µM) | relative viability ([1]; first compound 0.002 µM) | relative viability ([1]; first compound 0.006325 µM) | relative viability ([1]; first compound 0.02 µM) | relative viability ([2]; first compound 0.0002 µM) | relative viability ([2]; first compound 0.000632 µM) | relative viability ([2]; first compound 0.002 µM) | relative viability ([2]; first compound 0.006325 µM) | relative viability ([2]; first compound 0.02 µM) | relative viability ([3]; first compound 0.08 µM) | relative viability ([3]; first compound 0.253 µM) | relative viability ([3]; first compound 0.8 µM) | relative viability ([3]; first compound 2.53 µM) | relative viability ([3]; first compound 8 µM) | relative viability ([4]; first compound 0.01 µM) | relative viability ([4]; first compound 0.03162 µM) | relative viability ([4]; first compound 0.1 µM) | relative viability ([4]; first compound 0.3162 µM) | relative viability ([4]; first compound 1 µM)
1 | NCI-H2023 | 0.305 | 0.356 | 0.428 | 0.329 | 0.0545 | 0.25 | 0.247 | 0.246 | 0.0916 | 0.0786 | 0.406 | 0.451 | 0.301 | 0.111 | 0.0652 | 0.57 | 0.799 | 0.556 | 0.257 | 0.107
2 | NCI-H1355 | 0.503 | 0.591 | 0.584 | 0.131 | 0.122 | 1.02 | 0.97 | 1.06 | 0.711 | 0.13 | 0.442 | 0.444 | 0.387 | 0.309 | 0.165 | 0.641 | 0.588 | 0.769 | 0.632 | 0.78
3 | NCI-H1650 | 0.426 | 0.57 | 0.19 | 0.139 | 0.153 | 0.403 | 0.335 | 0.141 | 0.13 | 0.186 | 0.285 | 0.414 | 0.351 | 0.201 | 0.0872 | 0.172 | 0.208 | 0.21 | 0.202 | 0.23
4 | SW 1573 | 0.168 | 0.172 | 0.165 | 0.0802 | 0.0573 | 0.844 | 0.993 | 0.76 | 0.0663 | 0.0512 | 0.378 | 0.442 | 0.301 | 0.131 | 0.0733 | 0.26 | 0.442 | 0.206 | 0.188 | 0.164
5 | NCI-H661 | 0.367 | 0.355 | 0.341 | 0.287 | 0.201 | 0.887 | 0.89 | 0.88 | 0.594 | 0.23 | 0.4 | 0.41 | 0.404 | 0.27 | 0.269 | 0.917 | 0.937 | 0.921 | 0.808 | 0.601
6 | LU99A | 0.279 | 0.29 | 0.247 | 0.252 | 0.17 | 0.158 | 0.167 | 0.198 | 0.174 | 0.169 | 0.413 | 0.461 | 0.393 | 0.299 | 0.146 | 0.268 | 0.243 | 0.259 | 0.229 | 0.246
7 | LCLC-97TM1 | 0.289 | 0.204 | 0.25 | 0.131 | 0.14 | 0.189 | 0.17 | 0.16 | 0.166 | 0.0769 | 0.246 | 0.201 | 0.201 | 0.168 | 0.0556 | 0.734 | 0.563 | 0.788 | 0.761 | 0.532
8 | LC-2-ad | 0.447 | 0.477 | 0.328 | 0.217 | 0.199 | 0.255 | 0.271 | 0.255 | 0.252 | 0.185 | 0.552 | 0.488 | 0.413 | 0.298 | 0.18 | 0.984 | 0.914 | 0.773 | 0.733 | 0.361
9 | NCI-H1395 | 0.793 | 0.692 | 0.576 | 0.288 | 0.274 | 0.77 | 0.767 | 0.579 | 0.26 | 0.264 | 0.557 | 0.635 | 0.628 | 0.433 | 0.285 | 0.634 | 0.491 | 0.701 | 0.523 | 0.421
10 | NCI-H2228 | 0.232 | 0.231 | 0.251 | 0.0818 | 0.102 | 0.369 | 0.356 | 0.275 | 0.112 | 0.0808 | 0.64 | 0.727 | 0.518 | 0.0712 | 0.0545 | 0.164 | 0.109 | 0.138 | 0.113 | 0.186
11 | HOP-62 | 0.354 | 0.391 | 0.292 | 0.0719 | 0.0538 | 0.257 | 0.321 | 0.445 | 0.223 | 0.0603 | 0.41 | 0.458 | 0.492 | 0.371 | 0.154 | 0.854 | 0.815 | 0.846 | 0.88 | 0.926
12 | NCI-H2347 | 0.522 | 0.676 | 0.471 | 0.195 | 0.166 | 0.418 | 0.43 | 0.413 | 0.417 | 0.357 | 0.426 | 0.412 | 0.411 | 0.435 | 0.362 | 0.595 | 0.374 |  | 0.269 | 0.23
13 | NCI-H2087 | 0.236 | 0.276 | 0.19 | 0.0648 | 0.0487 | 0.626 | 0.761 | 0.63 | 0.0855 | 0.0402 | 0.213 | 0.17 | 0.236 | 0.164 | 0.123 | 0.164 | 0.166 | 0.161 | 0.121 | 0.121
14 | EPLC-272H | 0.297 | 0.258 | 0.221 | 0.1 | 0.101 | 0.354 | 0.308 | 0.157 | 0.085 | 0.0797 | 0.299 | 0.342 | 0.319 | 0.291 | 0.204 | 0.377 | 0.235 | 0.393 | 0.189 | 0.168
15 | LXF-289 | 0.166 | 0.183 | 0.157 | 0.0616 | 0.046 | 0.884 | 0.884 | 0.962 | 0.442 | 0.0884 | 0.632 | 0.63 | 0.602 | 0.568 | 0.304 | 0.707 | 0.649 | 0.594 | 0.619 | 0.662
16 | COR-L23 | 0.198 | 0.198 | 0.153 | 0.049 | 0.0491 | 0.186 | 0.196 | 0.201 | 0.0763 | 0.0792 | 0.315 | 0.33 | 0.24 | 0.127 | 0.0777 | 0.556 | 0.638 | 0.45 | 0.178 | 0.115
17 | RERF-LC-KJ | 0.523 | 0.436 | 0.559 | 0.208 | 0.189 | 0.673 | 0.459 | 0.464 | 0.347 | 0.358 | 1.03 | 1.15 | 0.92 | 0.647 | 0.336 | 1.07 | 1.32 | 1.04 | 0.583 | 0.554
18 | NCI-H1755 | 0.571 | 0.612 | 0.566 | 0.193 | 0.157 | 0.404 | 0.495 | 0.472 | 0.286 | 0.239 | 0.413 | 0.433 | 0.466 | 0.382 | 0.325 | 0.416 | 0.418 | 0.388 | 0.714 | 0.713
19 | PC-14 | 0.415 | 0.612 | 0.562 | 0.113 | 0.0502 | 0.126 | 0.142 | 0.166 | 0.0636 | 0.078 | 0.526 | 0.497 | 0.443 | 0.22 | 0.0464 | 0.132 | 0.138 | 0.148 | 0.13 | 0.146
20 | NCI-H322M | 0.468 |  | 0.442 | 0.278 | 0.308 | 0.642 | 0.403 | 0.617 | 0.4 | 0.335 | 0.444 | 0.572 | 0.458 | 0.336 | 0.287 | 0.949 | 0.809 |  | 0.758 | 0.39
21 | NCI-H1666 | 0.558 | 0.664 | 0.51 | 0.296 | 0.261 | 0.816 | 0.872 | 0.858 | 0.579 | 0.443 | 0.684 | 0.621 | 0.567 | 0.638 | 0.604 | 1.05 | 1.06 | 1.03 | 0.509 | 0.378
22 | A-427 | 0.212 | 0.263 | 0.193 | 0.105 | 0.102 | 0.914 | 0.971 | 0.968 | 0.235 | 0.182 | 0.58 | 0.518 | 0.51 | 0.454 | 0.201 | 0.952 | 0.962 | 0.916 | 0.775 | 0.674
23 | NCI-H358 | 0.101 | 0.114 | 0.103 | 0.0691 | 0.0756 | 0.163 | 0.182 | 0.171 | 0.104 | 0.0993 | 0.12 | 0.144 | 0.133 | 0.0673 | 0.072 | 0.395 | 0.245 | 0.449 | 0.351 | 0.161
24 | NCI-H1651 | 0.694 | 0.72 | 0.619 | 0.099 | 0.101 | 0.603 | 0.618 | 0.565 | 0.594 | 0.362 | 0.525 | 0.536 | 0.496 | 0.462 | 0.266 | 0.866 | 0.792 | 1.16 | 0.811 | 0.516
25 | NCI-H520 | 0.482 | 0.401 | 0.262 | 0.24 | 0.232 | 0.511 | 0.785 | 0.3 | 0.17 | 0.139 | 0.209 | 0.214 | 0.184 | 0.142 | 0.113 | 0.231 | 0.215 | 0.257 | 0.246 | 0.205
26 | NCI-H522 | 0.475 | 0.529 | 0.419 | 0.344 | 0.337 | 1.29 | 1.04 | 1.08 | 0.442 | 0.35 | 1.04 | 1.19 | 1.31 | 0.726 | 0.357 | 1.17 | 1.1 | 1.07 |  | 1.01
27 | 201T | 0.863 | 0.968 | 1.01 | 0.715 | 0.278 | 0.338 | 0.327 | 0.321 | 0.353 | 0.308 | 0.345 | 0.358 | 0.359 | 0.33 | 0.197 | 1.1 | 1.04 | 1.06 | 1.08 | 1.12
